The values below are quoted from earlier work in patent US20070026067A1, “Liquid formulations for controlled delivery of benzisoxazole derivatives” (priority 2005, published 2007).

Structures are written as SMILES.

For series [1] the following is noted: in vivo.

Regarding `Cc1nc2n(c(=O)c1CCN1CCC(c3noc4cc(F)ccc34)CC1)CCCC2O` (stereo not drawn) [Paliperidone], the solubility in water result is given as “practically insoluble”. In series [1], the half-life entry is given as “about one”.

For the compound `Cc1nc2n(c(=O)c1CCN1CCC(c3noc4cc(F)ccc34)CC1)CCCC2` [Risperidone], the solubility in water result was “practically insoluble”.
